Results published in patent US8957058B2, “Insecticidal pyrrolidin-yl-aryl-carboxamides” (Syngenta Participations AG, priority 2010, dated 2015).

Columns and labels:
Type in all cases: in vivo
[1] = tested on: Heliothis virescens (Tobacco Budworm); assay: Heliothis virescens egg test on artificial diet; conditions: for % Control at 12.5 ppm, Heliothis virescens / % Control at 200 ppm, Heliothis virescens: enantiomer comparison, 4 days incubation
Procedure: Heliothis virescens (Tobacco Budworm): Eggs (0-24 h old) were placed in 24-well microtiter plate on artificial diet and treated with test solutions at an application rate of 200 ppm (concentration in well 18 ppm) by pipetting. After an incubation period of 4 days, samples were checked for egg mortality, larval mortality, and growth regulation. Heliothis virescens (Tobacco Budworm): Eggs (0-24 h old) were placed in 24-well microtiter plate on artificial diet and treated with test solutions at an application rate starting at 200 ppm (concentration in well 18 ppm) by pipetting. After an incubation period of 4 days, samples were checked for egg mortality, larval mortality, and growth regulation.

[2] = tested on: Tetranychus urticae (Two-Spotted Spider Mite); assay: Tetranychus urticae bean leaf disc spray test; conditions: for % Control at 12.5 ppm, Tetranychus urticae / % Control at 200 ppm, Tetranychus urticae: enantiomer comparison, checked 8 days later; for Control, Tetranychus urticae (Two-spotted spider mite): application rate 12 ppm
Source text: […] After drying, the leaf discs are infested with mite populations of mixed ages. 8 days later, discs are checked for egg mortality, larval mortality, and adult mortality. […] After drying, the leaf discs are infested with mite populations of mixed ages. 8 days later, discs are checked for egg mortality, larval mortality, and adult mortality.

[3] = tested on: Plutella xylostella (Diamond Back Moth); assay: Plutella xylostella L2 larvae test on artificial diet; conditions: enantiomer comparison, 6 days incubation
Procedure: […] After drying, the MTP's were infested with L2 larvae (7-12 per well). After an incubation period of 6 days, samples were checked for larval mortality and growth regulation. […] After drying, the MTPs were infested with L2 larvae (7-12 per well). After an incubation period of 6 days, samples were checked for larval mortality and growth regulation.

[4] = tested on: Thrips tabaci (Onion Thrips); assay: Thrips tabaci sunflower leaf disc spray test; conditions: enantiomer comparison, 7 days incubation
Procedure: Thrips tabaci (Onion Thrips): Sunflower leaf discs were placed on agar in a 24-well microtiter plate and sprayed with test solutions at an application rate of 200 ppm. After drying, the leaf discs were infested with a thrip population of mixed ages. After an incubation period of 7 days, samples were checked for mortality. Thrips tabaci (Onion Thrips): Sunflower leaf discs were placed on agar in a 24-well microtiter plate and sprayed with test solutions at an application rate of 50 ppm. After drying, the leaf discs were infested with a thrip population of mixed ages. After an incubation period of 7 days, samples were checked for mortality.

[5] = tested on: Diabrotica balteata (Corn Root Worm); assay: Diabrotica balteata L2 larvae test on artificial diet; conditions: for % Control at 12.5 ppm, Diabrotica balteata / % Control at 200 ppm, Diabrotica balteata: enantiomer comparison, 5 days incubation; for Control, Diabrotica balteata (Corn root worm): application rate 12 ppm
Procedure: Diabrotica balteata (Corn Root Worm): A 24-well microtiter plate (MTP) with artificial diet was treated with test solutions at an application rate of 200 ppm (concentration in well […]) by pipetting. After drying, the MTP's were infested with L2 larvae (6-10 per well). After an incubation period of 5 days, samples were checked for larval mortality and growth regulation. Diabrotica balteata (Corn Root Worm): A 24-well microtiter plate (MTP) with artificial diet was treated with test solutions at an application rate of 12.5 ppm (concentration in well […]) by pipetting. After drying, the MTP's were infested with L2 larvae (6-10 per well). After an incubation period of 5 days, samples were checked for larval mortality and growth regulation.

[6] = tested on: Spodoptera littoralis (Egyptian Cotton Leaf Worm); assay: Spodoptera littoralis (systemic) test via salad grown on treated agar; conditions: 5 days after infestation
Source text: Spodoptera littoralis (Systemic) (Egyptian Cotton Leaf Worm) Test compounds were applied by pipette into 24 well plates and mixed with agar. Salad seeds were placed on the agar and the multi well plate is closed by another plate which contains also agar. After 7 days the roots have absorbed the compound and the salad has grown into the lid plate. The salad leafs were now cut off into the lid plate. Spodoptera eggs were pipette through a plastic stencil on a humid gel blotting paper and the plate closed with it. The samples are checked for mortality, repellent effect, feeding behavior, and growth regulation 5 days after infestation.

| Compound | % Control at 12.5 ppm, Heliothis virescens [1] [%] | % Control at 200 ppm, Heliothis virescens [1] [%] | % Control at 12.5 ppm, Tetranychus urticae [2] [%] | % Control at 200 ppm, Tetranychus urticae [2] [%] | % Control at 12.5 ppm, Plutella xylostella [3] [%] | % Control at 200 ppm, Plutella xylostella [3] [%] | % Control at 200 ppm, Thrips tabaci [4] [%] | % Control at 12.5 ppm, Diabrotica balteata [5] [%] | % Control at 200 ppm, Diabrotica balteata [5] [%] | % Control at 12.5 ppm, Spodoptera littoralis [6] [%] | % Control at 200 ppm, Spodoptera littoralis [6] [%] | Control, Heliothis virescens (Tobacco budworm) ([1]; application rate 0.8 ppm) [%] | Control, Heliothis virescens (Tobacco budworm) ([1]; application rate 3 ppm) [%] | Control, Tetranychus urticae (Two-spotted spider mite) [2] [%] | Control, Diabrotica balteata (Corn root worm) [5] [%] |
| --- | --- | --- | --- | --- | --- | --- | --- | --- | --- | --- | --- | --- | --- | --- | --- |
| Cc1cc(N2CCC(c3cc(Cl)cc(Cl)c3)(C(F)(F)F)C2)ccc1C(=O)NC1CS(=O)(=O)C1 (single isomer, unassigned) [Compound A5a] | 100 | 100 | 100 | 100 | 100 | 100 | 90 | 100 | 100 | 100 | 100 |  |  |  |  |
| Cc1cc(N2CCC(c3cc(Cl)cc(Cl)c3)(C(F)(F)F)C2)ccc1C(=O)NC1CS(=O)(=O)C1 (single isomer, unassigned) [Compound A5b] | 0 | 100 | 0 | 0 | 0 | 100 | 0 | 0 | 0 | 0 | 100 |  |  |  |  |
| Cc1cc(N2CCC(c3cc(Cl)cc(Cl)c3)(C(F)(F)F)C2)ccc1C(=O)NCc1ccccn1 (centres unmarked) [Compound 1-4 of WO08128711, reference compound] |  |  |  |  |  |  |  |  |  |  |  | 0 | 50 | 0 | 0 |
| Cc1cc(N2CCC(c3cc(Cl)cc(Cl)c3)(C(F)(F)F)C2)ccc1C(=O)NC1C[S+]([O-])C1 (centres unmarked) [Compound A1] |  |  |  |  |  |  |  |  |  |  |  | 100 |  | 100 | 80 |
| Cc1cc(N2CCC(c3cc(Cl)cc(Cl)c3)(C(F)(F)F)C2)ccc1C(=O)NC1CSC1 (centres unmarked) [Compound A4] |  |  |  |  |  |  |  |  |  |  |  |  | 80 | 100 | 100 |
| Cc1cc(N2CCC(c3cc(Cl)cc(Cl)c3)(C(F)(F)F)C2)ccc1C(=O)NC1CS(=O)(=O)C1 (centres unmarked) [Compound A5] |  |  |  |  |  |  |  |  |  |  |  |  | 80 | 100 | 100 |
